Assay results reported in patent publication US9295673B2, “Combination of mTOR inhibitors and P13-kinase inhibitors, and uses thereof” (Intellikine LLC, priority 2011, dated 2016).
Like-named read-outs stand apart in the source and are kept apart here.

What was measured:
PI3K α = PI3K α (Homo sapiens, UniProt P42336); assay: PI 3-Kinase (human) HTRF assay, PI3K α; settings: read-out: PI3K α IC50
PI3K δ = PI3K δ (Homo sapiens, UniProt O00329); assay: PI 3-Kinase (human) HTRF assay, PI3K δ; settings: read-out: PI3K δ IC50
mTOR = molecular target: T1, mTOR (Homo sapiens, UniProt P42345); assay: mTOR kinase inhibition assay (radiometric or LanthaScreen TR-FRET); type: biochemical; settings: read-out: mTORC IC50
T1 construct: purchased Invitrogen

PI3K β = PI3K β (Homo sapiens, UniProt P42338); assay: PI 3-Kinase (human) HTRF assay, PI3K β; settings: read-out: PI3K β IC50
PI3K γ = PI3K γ (Homo sapiens, UniProt P48736); assay: PI 3-Kinase (human) HTRF assay, PI3K γ; settings: read-out: PI3K γ IC50
PC3 = PC3 proliferation (Alamar Blue); type: cell-based; settings: Homo sapiens, PC-3; PC3 cells

Sequence of PI3K α (P42336 whole entry): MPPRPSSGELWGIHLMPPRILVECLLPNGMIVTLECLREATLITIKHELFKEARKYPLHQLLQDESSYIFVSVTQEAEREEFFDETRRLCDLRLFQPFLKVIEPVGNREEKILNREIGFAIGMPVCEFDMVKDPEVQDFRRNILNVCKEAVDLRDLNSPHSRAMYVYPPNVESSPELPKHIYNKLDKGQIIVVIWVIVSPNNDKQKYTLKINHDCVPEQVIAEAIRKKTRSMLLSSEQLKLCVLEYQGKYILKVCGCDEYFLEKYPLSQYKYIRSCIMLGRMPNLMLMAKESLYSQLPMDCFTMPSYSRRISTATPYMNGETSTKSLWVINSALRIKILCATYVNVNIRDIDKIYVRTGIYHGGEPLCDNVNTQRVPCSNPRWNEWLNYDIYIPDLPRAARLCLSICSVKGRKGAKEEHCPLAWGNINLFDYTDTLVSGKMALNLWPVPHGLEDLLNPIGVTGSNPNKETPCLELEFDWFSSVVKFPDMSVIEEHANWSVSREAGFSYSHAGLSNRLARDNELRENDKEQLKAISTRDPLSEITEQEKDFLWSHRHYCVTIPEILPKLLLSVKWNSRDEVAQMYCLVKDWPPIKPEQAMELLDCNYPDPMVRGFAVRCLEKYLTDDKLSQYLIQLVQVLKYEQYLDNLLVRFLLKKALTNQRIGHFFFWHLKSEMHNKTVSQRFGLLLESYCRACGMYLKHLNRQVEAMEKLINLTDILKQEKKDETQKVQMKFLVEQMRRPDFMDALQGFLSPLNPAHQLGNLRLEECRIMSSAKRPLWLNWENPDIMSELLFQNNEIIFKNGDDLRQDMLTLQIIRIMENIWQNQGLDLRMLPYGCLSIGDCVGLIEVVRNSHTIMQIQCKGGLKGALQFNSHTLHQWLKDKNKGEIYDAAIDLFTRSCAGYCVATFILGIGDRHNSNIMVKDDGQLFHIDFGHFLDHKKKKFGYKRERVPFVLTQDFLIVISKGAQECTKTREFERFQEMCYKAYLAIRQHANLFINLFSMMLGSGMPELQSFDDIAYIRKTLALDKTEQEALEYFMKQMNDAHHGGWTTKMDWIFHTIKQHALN
Sequence of PI3K α (P27986 whole entry partner): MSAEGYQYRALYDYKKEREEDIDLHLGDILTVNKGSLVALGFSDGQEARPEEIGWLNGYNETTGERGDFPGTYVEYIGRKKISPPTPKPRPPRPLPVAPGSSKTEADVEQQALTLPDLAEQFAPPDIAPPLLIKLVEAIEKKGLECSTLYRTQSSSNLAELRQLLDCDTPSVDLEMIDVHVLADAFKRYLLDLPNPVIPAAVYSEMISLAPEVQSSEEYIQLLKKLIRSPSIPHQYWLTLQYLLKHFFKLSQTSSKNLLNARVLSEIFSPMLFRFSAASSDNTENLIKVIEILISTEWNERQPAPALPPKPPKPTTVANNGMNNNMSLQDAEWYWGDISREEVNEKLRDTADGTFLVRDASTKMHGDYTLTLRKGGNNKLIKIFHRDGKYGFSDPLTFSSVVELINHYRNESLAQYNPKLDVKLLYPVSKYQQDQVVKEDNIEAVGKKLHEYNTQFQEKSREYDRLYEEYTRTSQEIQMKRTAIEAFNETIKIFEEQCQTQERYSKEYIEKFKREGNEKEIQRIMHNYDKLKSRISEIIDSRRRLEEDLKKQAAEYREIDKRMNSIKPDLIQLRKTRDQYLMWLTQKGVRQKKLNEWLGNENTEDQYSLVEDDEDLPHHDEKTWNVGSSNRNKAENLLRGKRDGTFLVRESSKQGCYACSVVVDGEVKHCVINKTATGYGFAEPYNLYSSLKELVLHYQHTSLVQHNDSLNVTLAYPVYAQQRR
Sequence of PI3K β (P42338 whole entry): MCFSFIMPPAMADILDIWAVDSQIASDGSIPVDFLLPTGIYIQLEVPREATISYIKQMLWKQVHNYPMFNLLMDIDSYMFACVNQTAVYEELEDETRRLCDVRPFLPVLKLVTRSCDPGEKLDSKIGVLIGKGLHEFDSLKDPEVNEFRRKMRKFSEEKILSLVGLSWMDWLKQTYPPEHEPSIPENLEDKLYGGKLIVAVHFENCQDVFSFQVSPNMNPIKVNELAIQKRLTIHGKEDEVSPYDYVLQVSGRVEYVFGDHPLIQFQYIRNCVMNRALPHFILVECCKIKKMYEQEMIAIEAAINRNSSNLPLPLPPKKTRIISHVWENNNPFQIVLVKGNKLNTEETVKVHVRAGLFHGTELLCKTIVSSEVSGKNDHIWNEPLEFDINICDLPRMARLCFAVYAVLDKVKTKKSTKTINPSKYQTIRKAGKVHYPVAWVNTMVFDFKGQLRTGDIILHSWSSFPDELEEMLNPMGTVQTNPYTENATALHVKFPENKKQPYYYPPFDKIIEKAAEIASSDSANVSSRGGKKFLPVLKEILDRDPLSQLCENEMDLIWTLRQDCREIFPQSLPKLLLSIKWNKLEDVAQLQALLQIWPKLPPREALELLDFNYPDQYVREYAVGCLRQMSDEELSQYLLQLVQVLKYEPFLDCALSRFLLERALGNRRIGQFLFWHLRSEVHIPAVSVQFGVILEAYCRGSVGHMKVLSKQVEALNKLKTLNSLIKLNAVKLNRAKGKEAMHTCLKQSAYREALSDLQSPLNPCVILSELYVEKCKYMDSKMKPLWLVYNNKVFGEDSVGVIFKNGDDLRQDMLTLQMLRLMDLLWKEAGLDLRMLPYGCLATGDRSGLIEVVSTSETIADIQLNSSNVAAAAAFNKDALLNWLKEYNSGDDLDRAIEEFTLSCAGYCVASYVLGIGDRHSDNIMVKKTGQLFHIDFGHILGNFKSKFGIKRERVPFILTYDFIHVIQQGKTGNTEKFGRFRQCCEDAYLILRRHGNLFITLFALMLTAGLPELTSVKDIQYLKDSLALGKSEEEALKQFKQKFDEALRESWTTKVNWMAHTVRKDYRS
Sequence of PI3K β (P27986 whole entry partner): as the sequence (P27986 whole entry partner) above
Sequence of PI3K δ (O00329 whole entry): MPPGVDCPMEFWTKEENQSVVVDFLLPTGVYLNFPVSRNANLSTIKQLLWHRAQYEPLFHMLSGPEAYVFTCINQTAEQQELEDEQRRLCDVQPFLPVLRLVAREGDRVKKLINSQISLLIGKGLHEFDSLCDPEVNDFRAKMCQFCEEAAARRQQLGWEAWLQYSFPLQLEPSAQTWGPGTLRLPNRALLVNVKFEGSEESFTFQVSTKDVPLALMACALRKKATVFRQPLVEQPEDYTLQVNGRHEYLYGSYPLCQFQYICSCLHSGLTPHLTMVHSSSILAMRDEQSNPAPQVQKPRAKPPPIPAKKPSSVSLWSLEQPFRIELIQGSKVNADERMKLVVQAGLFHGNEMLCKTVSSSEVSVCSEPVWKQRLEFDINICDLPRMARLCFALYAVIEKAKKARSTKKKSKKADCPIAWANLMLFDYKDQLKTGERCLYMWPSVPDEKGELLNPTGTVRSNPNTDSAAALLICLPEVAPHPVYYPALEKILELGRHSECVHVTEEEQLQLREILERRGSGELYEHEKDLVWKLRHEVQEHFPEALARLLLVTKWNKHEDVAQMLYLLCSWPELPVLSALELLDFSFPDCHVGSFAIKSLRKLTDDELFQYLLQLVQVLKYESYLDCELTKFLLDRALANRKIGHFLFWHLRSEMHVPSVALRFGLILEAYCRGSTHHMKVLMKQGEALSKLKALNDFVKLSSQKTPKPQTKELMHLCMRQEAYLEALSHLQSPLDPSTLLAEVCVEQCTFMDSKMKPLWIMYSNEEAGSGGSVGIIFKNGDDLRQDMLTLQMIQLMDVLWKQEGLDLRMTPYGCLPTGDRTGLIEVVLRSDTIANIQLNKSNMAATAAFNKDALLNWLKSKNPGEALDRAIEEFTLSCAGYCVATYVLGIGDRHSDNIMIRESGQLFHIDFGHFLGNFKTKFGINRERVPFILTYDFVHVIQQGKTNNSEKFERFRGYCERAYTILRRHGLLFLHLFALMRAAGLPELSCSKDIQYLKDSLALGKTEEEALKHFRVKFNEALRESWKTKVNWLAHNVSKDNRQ
Sequence of PI3K δ (P27986 whole entry partner): as the sequence (P27986 whole entry partner) above
Sequence of PI3K γ (P48736 whole entry): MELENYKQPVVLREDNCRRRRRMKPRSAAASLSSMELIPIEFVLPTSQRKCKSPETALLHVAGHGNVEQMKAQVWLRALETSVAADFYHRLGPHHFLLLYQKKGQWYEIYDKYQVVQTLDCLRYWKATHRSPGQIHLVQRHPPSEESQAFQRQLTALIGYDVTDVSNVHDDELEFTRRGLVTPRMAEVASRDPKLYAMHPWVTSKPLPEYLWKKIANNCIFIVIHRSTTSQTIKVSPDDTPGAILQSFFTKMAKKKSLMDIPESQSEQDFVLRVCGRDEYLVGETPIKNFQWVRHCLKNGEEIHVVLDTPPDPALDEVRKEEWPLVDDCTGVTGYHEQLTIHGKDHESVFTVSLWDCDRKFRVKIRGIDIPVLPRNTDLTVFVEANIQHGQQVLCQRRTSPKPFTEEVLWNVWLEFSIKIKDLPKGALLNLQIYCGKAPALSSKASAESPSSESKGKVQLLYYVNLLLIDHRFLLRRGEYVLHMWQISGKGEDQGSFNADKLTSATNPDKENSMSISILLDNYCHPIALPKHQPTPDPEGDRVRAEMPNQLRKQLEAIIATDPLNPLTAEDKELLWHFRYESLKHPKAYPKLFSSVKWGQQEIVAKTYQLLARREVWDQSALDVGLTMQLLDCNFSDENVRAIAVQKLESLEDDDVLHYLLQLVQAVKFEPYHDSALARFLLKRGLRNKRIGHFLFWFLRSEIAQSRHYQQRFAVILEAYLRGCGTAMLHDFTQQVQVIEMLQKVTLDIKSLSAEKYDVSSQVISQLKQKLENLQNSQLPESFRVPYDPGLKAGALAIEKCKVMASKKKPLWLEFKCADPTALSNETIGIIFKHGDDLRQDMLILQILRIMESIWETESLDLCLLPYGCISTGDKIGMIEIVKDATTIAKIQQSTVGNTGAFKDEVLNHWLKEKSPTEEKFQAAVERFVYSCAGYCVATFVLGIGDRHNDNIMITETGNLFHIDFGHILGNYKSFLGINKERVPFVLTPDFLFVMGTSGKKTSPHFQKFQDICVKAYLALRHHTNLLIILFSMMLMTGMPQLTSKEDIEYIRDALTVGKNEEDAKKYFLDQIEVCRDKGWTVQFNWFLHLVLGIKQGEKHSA

IC50 (PC3) [nM]	Compound	IC50 (mTOR; Table 2) [nM]	IC50 (PI3K β; Table 2) [nM]	IC50 (PI3K γ; Table 2) [nM]	IC50 (PI3K α; Table 2) [nM]	also measured
	Nc1nc2cc(-c3ccc4ncc(N5C6CCC5COC6)nc4n3)ccc2o1 [Compound 570]					IC50 (PI3K α; Table 4): < 100 nM; IC50 (PI3K δ): > 10000 nM; IC50 (mTOR; Table 4): > 10000 nM; IC50 (PI3K β; Table 4): > 10000 nM; IC50 (PI3K γ; Table 4): < 100 nM
	COc1cccc2cc(-c3nn(C4CCOCC4)c4ncnc(N)c34)[nH]c12 [Compound 63]	< 5	> 500	10 to 25		IC50 (PI3K α): 100 to 500 nM; IC50 (PI3K δ): 10 to 25 nM
< 1000	COC1CN(C(=O)c2cnc3ccc(-c4ccc5oc(N)nc5c4)cn23)C1 [Compound 467]					
< 1000	Nc1nc2cc(-c3ccc4ncc(C(=O)N5CC(F)(F)C5)n4c3)ccc2o1 [Compound 473]					
< 10000	O=C(c1cnc2ccc(-c3cnc(Cl)c(NS(=O)(=O)c4ccccc4F)c3)cn12)N1CCOCC1 [Compound 452]					
	COc1ccc2cc(-c3nn(C4CCOCC4)c4ncnc(N)c34)[nH]c2c1 [Compound 59]	> 500	> 500	> 500	> 500	
	Nc1ncnc2c1c(-c1cc3cccc(O)c3[nH]1)nn2C1CCN(C(=O)C2CC2)CC1 [Compound 41]	< 10	> 500		> 500	IC50 (PI3K δ; Table 2): > 500 nM; IC50 (PI3K γ): 25 to 50 nM
	Nc1ncnc2c1c(-c1cc3cc(O)cc(Cl)c3[nH]1)nn2C1CCOCC1 [Compound 68]	< 5	> 500	25 to 50	100 to 500	IC50 (PI3K δ): 10 to 25 nM
< 1000	Nc1nc2cc(-c3ccc4ncc(C(=O)N5CC[C@H](n6cccn6)C5)n4c3)ccc2o1 [Compound 478]					
< 10000	CN(C(=O)c1cnc2ccc(-c3ccc4oc(N)nc4c3)cn12)C1CCOCC1 [Compound 472]					
	CC(=O)N1CCC(n2nc(-c3cc4cc(O)cc(Cl)c4[nH]3)c3c(N)ncnc32)CC1 [Compound 70]	< 5	> 500	50 to 100	100 to 500	IC50 (PI3K δ; Table 2): 10 to 25 nM
	Nc1ncnc2c1c(-c1cc3cc(O)ccc3[nH]1)nn2C1CC(=O)C1 [Compound 53]	< 100	> 500	> 500		IC50 (PI3K α): > 500 nM
< 1000	O=C(c1cnc2ccc(-c3cnc(Cl)c(NS(=O)(=O)c4ccc(F)cc4)c3)cn12)N1CCOCC1 [Compound 457]					
	CC(C)N1CCC(n2nc(-c3cc4cc(O)cc(Cl)c4[nH]3)c3c(N)ncnc32)CC1 [Compound 56]	> 500	> 500	> 500		IC50 (PI3K α): > 500 nM
	CC(C)N1CCC(n2nc(-c3cc4cccc(O)c4[nH]3)c3c(N)ncnc32)CC1 [Compound 64]	< 25	> 500	100 to 500	> 500	IC50 (PI3K δ; Table 2): 100 to 500 nM
	COc1cccc2cc(-c3nn(C4CCN(C(=O)C5CC5)CC4)c4ncnc(N)c34)[nH]c12 [Compound 66]	> 500	> 500	> 500	> 500	IC50 (PI3K δ): > 500 nM
	Nc1ncnc2c1c(-c1cc3ccc(O)cc3[nH]1)nn2C1CCOCC1 [Compound 60]	< 100	> 500	50 to 100	> 500	
	CN1CC2CN(c3cnc4ccc(-c5ccc6oc(N)nc6c5)nc4c3)CC2C1 (stereo not drawn) [Compound 630]					IC50 (PI3K α; Table 4): < 100 nM; IC50 (PI3K δ; Table 4): < 1000 nM; IC50 (mTOR; Table 4): > 10000 nM; IC50 (PI3K β; Table 4): < 1000 nM; IC50 (PI3K γ; Table 4): < 1000 nM
< 10000	CC(C)N1CCC(n2cnc3ccc(-c4cnc(Cl)c(NS(C)(=O)=O)c4)cc3c2=O)CC1 [Compound 523]					
	COc1cc(Cl)c2[nH]c(-c3nn(C4CCOCC4)c4ncnc(N)c34)cc2c1 [Compound 67]	> 500	> 500	> 500	> 500	IC50 (PI3K δ; Table 2): > 500 nM
< 1000	O=C(c1cnc2ccc(-c3cnc(Cl)c(NS(=O)(=O)c4ccccc4)c3)cn12)N1CCOCC1 [Compound 451]					
< 1000	COc1ncc(-c2ccc3ncn(C4CCN(C)CC4)c(=O)c3c2)cc1NS(=O)(=O)c1ccccc1 [Compound 524]					
	Nc1ncnc2c1c(-c1cc3cc(O)ccc3[nH]1)nn2C1CCC(N2CCOCC2)CC1 (stereo not drawn) [Compound 57]	< 25	> 500	> 500	> 500	
< 10000	Nc1nc2cc(-c3ccc4ncc(C(=O)N5CC(N6CC[C@H](O)C6)C5)n4c3)ccc2o1 [Compound 469]					
< 1000	C[C@H]1CN(C2CN(C(=O)c3cnc4ccc(-c5ccc6oc(N)nc6c5)cn34)C2)CCN1C [Compound 512]					IC50 (PI3K γ; in vitro): < 10000 nM

Compound	IC50 (PC3) [nM]	IC50 (mTOR; Table 2) [nM]	IC50 (PI3K β; Table 2) [nM]	IC50 (PI3K γ; Table 2) [nM]	IC50 (PI3K α; Table 2) [nM]	also measured
Nc1nc2cc(-c3ccc4ncc(C(=O)N5C6CCC5COC6)n4c3)ccc2o1 [Compound 480]	< 1000					
